Measured values: patent US8586588B2, “Aryl pyridazinone derivatives and their use as H3 receptor ligands” (Cephalon, Inc., priority 2006, dated 2013)

Assays:
[1] = target: T1, rat histamine H3 receptor (Rattus norvegicus, UniProt Q9QYN8); experiment: Rat H3 radioligand binding ([3H]-N-alpha-methylhistamine, CHO-A3 cell membranes, SPA); conditions: Table B, binding constant as letter class; read-out: rat H3 Ki
T1 construct: encoding the entire 445-amino-acid rat histamine H3 receptor; expressed in transfected cells
Method in brief: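 Membranes from CHO-A3 cells stably expressing rat H3 (10 μg protein) incubated 4 h at room temperature in 50 mM Tris-HCl pH 7.4, 5 mM MgCl2, 0.1% BSA with ~1 nM [3H]-N-alpha-methylhistamine and compound (0.01 nM-30 μM). Bound radioligand read by scintillation proximity; nonspecific binding with 10 μM clobenpropit.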

[2] = target: T2, human H3 receptor (Homo sapiens, UniProt Q9Y5N1); experiment: Human H3 radioligand binding ([3H]-N-alpha-methylhistamine, CHO cell membranes, SPA); conditions: Table B
T2 construct: expressed in transfected cells
Method in brief: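 CHO cell membranes expressing human H3 (10 μg protein/well) incubated 4 h at room temperature, in the dark, with ~1 nM [3H]-N-alpha-methylhistamine, compounds (0.01 nM-30 μM) and SPA beads in 50 mM Tris HCl pH 7.4, 5 mM MgCl2, 0.1% BSA. Non-specific binding defined with 10 μM clobenpropit.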

[3] = binding constant as letter class

T2 sequence (Q9Y5N1 whole entry): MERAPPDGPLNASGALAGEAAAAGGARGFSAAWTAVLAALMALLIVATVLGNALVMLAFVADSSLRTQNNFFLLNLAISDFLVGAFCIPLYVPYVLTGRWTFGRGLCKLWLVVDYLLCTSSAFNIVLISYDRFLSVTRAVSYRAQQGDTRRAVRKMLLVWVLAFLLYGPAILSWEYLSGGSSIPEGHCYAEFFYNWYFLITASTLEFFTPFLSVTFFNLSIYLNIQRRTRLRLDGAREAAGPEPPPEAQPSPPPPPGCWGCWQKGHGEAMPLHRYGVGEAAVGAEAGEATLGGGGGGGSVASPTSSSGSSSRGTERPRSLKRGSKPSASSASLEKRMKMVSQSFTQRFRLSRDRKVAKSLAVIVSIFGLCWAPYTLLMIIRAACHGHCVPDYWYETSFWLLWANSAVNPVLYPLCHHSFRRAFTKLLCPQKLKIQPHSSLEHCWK
T1 sequence (Q9QYN8 whole entry): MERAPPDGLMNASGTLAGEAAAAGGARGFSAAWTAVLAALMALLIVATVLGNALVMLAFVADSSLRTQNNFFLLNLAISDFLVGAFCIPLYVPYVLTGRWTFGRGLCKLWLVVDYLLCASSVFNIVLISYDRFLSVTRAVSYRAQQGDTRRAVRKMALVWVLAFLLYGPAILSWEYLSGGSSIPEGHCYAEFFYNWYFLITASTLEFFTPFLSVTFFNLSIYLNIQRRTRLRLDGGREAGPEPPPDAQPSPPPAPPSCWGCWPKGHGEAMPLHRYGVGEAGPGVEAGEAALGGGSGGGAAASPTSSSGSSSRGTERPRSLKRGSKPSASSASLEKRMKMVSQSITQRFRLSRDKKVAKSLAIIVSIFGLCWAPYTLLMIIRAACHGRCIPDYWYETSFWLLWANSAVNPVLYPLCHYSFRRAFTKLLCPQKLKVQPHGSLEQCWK

SMILES	melting point [°C]	Ki [1] [nM]	Ki [2, 3] [nM]	Ki ([2]; cell prints a number instead of a letter) [nM]
C[C@@H]1CCCN1CCCOc1ccc(-n2nc(-c3cccnc3)ccc2=O)cc1 [Example 204, 2-{4-[3-((R)-2-Methyl-pyrrolidin-1-yl)-propoxy]-phenyl}-6-pyridin-3-yl-2H-pyridazin-3-one]	87 to 90	0.1 to 100	0.1 to 100	–
Cc1onc2c(=O)[nH]nc(-c3ccc(OCCCN4CCCCC4)cc3)c12 [Example 207, 3-Methyl-4-[4-(3-piperidin-1-yl-propoxy)-phenyl]-6H-isoxazolo[3,4-d]pyridazin-7-one]	178 to 179	0.1 to 100	0.1 to 100	–
Cc1onc2c(=O)[nH]nc(-c3ccc(OCCCN4CCC[C@H]4C)cc3)c12 [Example 208, 3-Methyl-4-{4-[3-((R)-2-methyl-pyrrolidin-1-yl)-propoxy]-phenyl}-6H-isoxazolo[3,4-d]pyridazin-7-one]	169 to 170	0.1 to 100	0.1 to 100	–
Cc1cc(=O)[nH]nc1-c1ccc(OCCCN2CCC[C@H]2C)cc1 [Example 210, 5-Methyl-6-{4-[3-((R)-2-methyl-pyrrolidin-1-yl)-propoxy]-phenyl}-2H-pyridazin-3-one]	253 to 255	0.1 to 100	0.1 to 100	–
CCc1cc(=O)[nH]nc1-c1ccc(OCCCN2CCC[C@H]2C)cc1 [Example 211, 5-Ethyl-6-{4-[3-((R)-2-methyl-pyrrolidin-1-yl)-propoxy]-phenyl}-2H-pyridazin-3-one]	272 to 275	0.1 to 100	0.1 to 100	–
C[C@@H]1CCCN1CCCOc1ccc(-c2ccc(=O)[nH]n2)c(F)c1 [Example 214, 6-{2-Fluoro-4-[3-((R)-2-methyl-pyrrolidin-1-yl)-propoxy]-phenyl}-2H-pyridazin-3-one]	220 to 222	0.1 to 100	0.1 to 100	–
O=C1CC2CCc3cc(OC4CCN(C5CCC5)CC4)ccc3C2=NN1 (stereo not drawn) [Example 220, 8-(1-Cyclobutyl-piperidin-4-yloxy)-4,4a,5,6-tetrahydro-2H-benzo[h]cinnolin-3-one]	> 300	0.1 to 100	0.1 to 100	–

Other lines, results leading:

melting point [°C]	Ki [1] [nM]	Ki [2, 3] [nM]	Ki ([2]; cell prints a number instead of a letter) [nM]	SMILES
102 to 104	0.1 to 100	0.1 to 100	–	C[C@@H]1CCCN1CCCOc1c(F)cc(C2=NNC(=O)CC2)cc1F [Example 186, 6-{3,5-Difluoro-4-[3-((R)-2-methyl-pyrrolidin-1-yl)-propoxy]-phenyl}-4,5-dihydro-2H-pyridazin-3-one]
162 to 164	0.1 to 100	0.1 to 100	–	O=C1CCC(c2cc(F)c(OC3CCN(C4CCC4)CC3)c(F)c2)=NN1 [Example 187, 6-[4-(1-Cyclobutyl-piperidin-4-yloxy)-3,5-difluoro-phenyl]-4,5-dihydro-2H-pyridazin-3-one]
195 to 197	0.1 to 100	0.1 to 100	–	O=c1ccc(-c2cc(F)c(OC3CCN(C4CCC4)CC3)c(F)c2)n[nH]1 [Example 188, 6-[4-(1-Cyclobutyl-piperidin-4-yloxy)-3,5-difluoro-phenyl]-2H-pyridazin-3-one]
152 to 154	0.1 to 100	–	4	CCC1CC(=O)NN=C1c1ccc(OC2CCN(C3CCC3)CC2)cc1 (stereo not drawn) [Example 192]
86 to 89	0.1 to 100	0.1 to 100	–	C[C@@H]1CCCN1CCCOc1ccc(-n2nc(-c3ccccc3)ccc2=O)cc1 [Example 200, 2-{4-[3-((R)-2-Methyl-pyrrolidin-1-yl)-propoxy]-phenyl}-6-phenyl-2H-pyridazin-3-one]
70 to 73	0.1 to 100	0.1 to 100	–	C[C@@H]1CCCN1CCCOc1ccc(-n2ncc3ccccc3c2=O)cc1 [Example 202, 2-{4-[3-((R)-2-Methyl-pyrrolidin-1-yl)-propoxy]-phenyl}-2H-phthalazin-1-one]
